In patent US20060047114A1, “Azabicyclic amine histamine-3 receptor antagonists” (Pfizer Inc, priority 2004, published 2006):

molecular target: T1, rat histamine H3 receptors (Rattus norvegicus, UniProt Q9QYN8); test: Rat H3 binding (3H-N-methylhistamine displacement, frontal brain membranes); settings: radioligand 1 nM 3H-N-methylhistamine, 1-hour incubation, read-out: Rat H3 activity (Kj)
T1 construct: Frozen rat frontal brain or frozen human post-mortem frontal brain is homogenized; from tissue; host or cells: rat frontal brain membranes
Procedure: The in vitro affinity of the compounds in the present invention at the rat or human histamine H3 receptors can be determined according to the following procedure. Frozen rat frontal brain or frozen human post-mortem frontal brain is homogenized in 20 volumes of cold 50 mM Tris HCl containing 2 mM MgCl2 (pH to 7.4 at 4° C.). The homogenate is then centrifuged at 45,000 G for 10 minutes. The supernatant is decanted and the membrane pellet re-suspended by Polytron in cold 50 mM Tris HCl containing 2 mM MgCl2 (pH to 7.4 at 4 degrees C.) and centrifuged again. The final pellet is re-suspended in 50 mM Tris HCl containing 2 mM MgCl2 (pH to 7.4 at 25 degrees C.) at a concentration of 12 mg/mL. Dilutions of compounds are made in 10% DMSO/50 mM Tris buffer (pH 7.4) (at 10× final concentration, so that the final DMSO concentration is 1%). Incubations are initiated by the addition of membranes (200 microliters) to 96 well V-bottom polypropylene plates containing 25 microliters of drug dilutions and 25 microliters of radioligand (1 nM final concentration ^3H-N-methylhistamine). After a 1-hour incubation, assay samples are rapidly filtered through Whatman GF/B filters and rinsed with ice-cold 50 mM Tris buffer (pH 7.4) using a Skatron cell harvester. Radioactivity is quantified using a BetaPlate scintillation counter.

T1 sequence (Q9QYN8 whole entry): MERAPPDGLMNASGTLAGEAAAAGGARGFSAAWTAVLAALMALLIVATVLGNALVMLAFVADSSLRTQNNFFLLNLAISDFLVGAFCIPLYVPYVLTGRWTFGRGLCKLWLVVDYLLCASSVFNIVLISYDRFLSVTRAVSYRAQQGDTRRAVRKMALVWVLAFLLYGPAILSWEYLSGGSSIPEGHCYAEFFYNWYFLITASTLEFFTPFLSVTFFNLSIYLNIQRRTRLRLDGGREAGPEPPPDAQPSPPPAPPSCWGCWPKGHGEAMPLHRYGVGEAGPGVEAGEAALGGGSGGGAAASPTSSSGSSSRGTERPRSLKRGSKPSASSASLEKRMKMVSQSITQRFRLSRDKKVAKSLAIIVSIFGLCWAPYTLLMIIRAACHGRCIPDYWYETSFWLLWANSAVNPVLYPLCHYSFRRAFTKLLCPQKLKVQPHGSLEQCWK

SMILES | Ki
CC(=O)c1ccc(CN2C[C@@H]3[C@@H](COCCCN4CCCCC4)[C@@H]3C2)cc1 [Example 2, (1S,5R,6R)-1-{4-[6-(3-Piperidin-1-ylpropoxymethyl)-3-azabicyclo[3.1.0]hex-3-ylmethyl]-phenyl}-ethanone] | 116 nM
c1ccc(CCN2C[C@@H]3[C@@H](COCCCN4CCCCC4)[C@@H]3C2)cc1 [Example 3, (1S,5R,6R)-3-Phenethyl-6-(3-piperidin-1-ylpropoxymethyl)-3-azabicyclo[3.1.0]-hexane] | 78 nM
c1ccc(Oc2cccc(CN3C[C@@H]4[C@@H](COCCCN5CCCCC5)[C@@H]4C3)c2)cc1 [Example 14, (1S,5R,6R)-3-(3-phenoxybenzyl)-6-(3-piperidin-1-ylpropoxymethyl)-3-azabicyclo[3.1.0]hexane] | 51 nM
c1ccc(COc2cccc(CN3C[C@@H]4[C@@H](COCCCN5CCCCC5)[C@@H]4C3)c2)cc1 [Example 15, (1S,5R,6R)-3-(3-benzyloxybenzyl)-6-(3-piperidin-1-ylpropoxymethyl)-3-azabicyclo[3.1.0]hexane] | 41 nM
c1ccc(-c2ccc(CN3C[C@@H]4[C@@H](COCCCN5CCCCC5)[C@@H]4C3)cc2)cc1 [Example 17, (1S,5R,6R)-3-biphenyl-4-ylmethyl-6-(3-piperidin-1-ylpropoxymethyl)-3-azabicyclo[3.1.0]hexane] | 32 nM
c1ccc(Oc2ccc(CN3C[C@@H]4[C@@H](COCCCN5CCCCC5)[C@@H]4C3)cc2)cc1 [Example 30, (1S,5R,6R)-3-(4-phenoxybenzyl)-6-(3-piperidin-1-ylpropoxymethyl)-3-azabicyclo[3.1.0]hexane] | 51 nM
Fc1ccc(Oc2ccc(CN3C[C@@H]4[C@@H](COCCCN5CCCCC5)[C@@H]4C3)cc2)cc1 [Example 47, (1R,5S,6R)-3-[4-(4-fluorophenoxy)-benzyl]-6-(3-piperidin-1-ylpropoxymethyl)-3-azabicyclo[3.1.0]hexane] | 43 nM
CC(=O)Nc1ccc(CN2C[C@@H]3[C@@H](COCCCN4CCCCC4)[C@@H]3C2)cc1 [Example 49, N-{4-[(1R,5S,6R)-6-(3-piperidin-1-ylpropoxymethyl)-3-azabicyclo[3.1.0]hex-3-ylmethyl]-phenyl}-acetamide] | 45 nM
O=C1NCCN1c1ccc(CN2C[C@@H]3[C@@H](COCCCN4CCCCC4)[C@@H]3C2)cc1 [Example 51, 1-{4-[(1R,5S,6R)-6-(3-piperidin-1-ylpropoxymethyl)-3-azabicyclo[3.1.0]hex-3-ylmethyl]-phenyl}-imidazolidin-2-one] | 58 nM
COc1ccc(-c2ccc(CN3C[C@@H]4[C@@H](COCCCN5CCCCC5)[C@@H]4C3)cc2)cc1 [Example 57, (1R,5S,6R)-3-(4′-methoxybiphenyl-4-ylmethyl)-6-(3-piperidin-1-ylpropoxymethyl)-3-azabicyclo[3.1.0]hexane] | 30 nM
c1cncc(-c2ccc(CN3C[C@@H]4[C@@H](COCCCN5CCCCC5)[C@@H]4C3)cc2)c1 [Example 67, (1R,5S,6R)-6-(3-piperidin-1-ylpropoxymethyl)-3-(4-pyridin-3-ylbenzyl)-3-azabicyclo[3.1.0]hexane] | 63 nM
FC(F)C(F)(F)Oc1ccc(CN2C[C@@H]3[C@@H](COCCCN4CCCCC4)[C@@H]3C2)cc1 [Example 69, (1R,5S,6R)-6-(3-piperidin-1-ylpropoxymethyl)-3-[4-(1,1,2,2-tetrafluoroethoxy)-benzyl]-3-azabicyclo[3.1.0]hexane] | 53 nM
CC(C)COc1ccc(CN2C[C@@H]3[C@@H](COCCCN4CCCCC4)[C@@H]3C2)cc1 [Example 70, (1R,5S,6R)-3-(4-isobutoxybenzyl)-6-(3-piperidin-1-ylpropoxymethyl)-3-azabicyclo[3.1.0]hexane] | 69 nM
c1ccc(CN2C[C@@H]3[C@@H](COCCCN4CCCCC4)[C@@H]3C2)cc1 [Int. 3, (1S,5R,6R)-3-Benzyl-6-(3-piperidin-1-ylpropoxymethyl)-3-azabicyclo[3.1.0]hexane] | 86 nM
